Laboratory results: PubChem BioAssay (NCI)
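1) Cells in 96-well plates. 2) Compound, 48 h, 5 concentrations. 3) Linear interpolation between surrounding doses. 4) Unreached endpoint = highest concentration. At the GI50, growth is halved. Definition used: TGI = concentration required for complete inhibition of growth.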

Columns and labels:
Experiment in all cases: growth of human tumour cells (NCI), 48 h
[1] = test system: RXF 393 renal
[2] = test system: HT29 colon
[3] = test system: OVCAR-4 ovarian
[4] = test system: HL-60(TB) leukemia
[5] = test system: SK-OV-3 ovarian
[6] = test system: M14 melanoma
[7] = test system: NCI-H23 lung
[8] = test system: 786-0 renal
[9] = test system: PC-3 prostate
[10] = test system: MDA-N

## O=S(=O)(c1cc(Cl)ccc1Cl)n1ccnc1
[1]
  TGI: 74.1 µM
[2]
  TGI: > 100 µM
[3]
  TGI: > 100 µM
[4]
  TGI: 88 µM
[5]
  TGI: > 100 µM
[6]
  TGI: > 100 µM
[7]
  TGI: 52.8 µM
[8]
  TGI: > 100 µM
[9]
  TGI: > 100 µM

## CN(C)CCCNC(=O)c1cc(NC(=O)c2cc(NC(=O)CCCn3c4ccccc4c4ccccc43)cn2C)cn1C
[1]
  TGI: 37.8 µM
[2]
  TGI: > 100 µM
[3]
  TGI: 35.5 µM
[4]
  TGI: > 72.4 µM
[5]
  TGI: 30.8 µM
[6]
  TGI: 12.3 µM
[7]
  TGI: 39.3 µM
[8]
  TGI: 28.7 µM
[9]
  TGI: > 56.3 µM

## COc1cc(-c2n/c(=C\c3c(O)[nH]c4ccc(Cl)cc34)cc3c2=Nc2ccccc2-3)ccc1F
[1]
  GI50: 1.71 µM
  TGI: 3.29 µM
[3]
  GI50: 1.74 µM
  TGI: 3.48 µM
[4]
  GI50: 10.9 µM
  TGI: 34.7 µM
[5]
  GI50: 2.29 µM
  TGI: 5.3 µM
[6]
  GI50: 1.89 µM
  TGI: 3.48 µM
[7]
  GI50: 1.73 µM
  TGI: 3.42 µM
[9]
  GI50: 2 µM
  TGI: 5.88 µM

## O=C(c1ccncc1)n1nc(-c2ccccc2)c(N=Nc2ccccc2[N+](=O)[O-])c1-c1ccccc1
[2]
  TGI: > 100 µM
[3]
  TGI: > 100 µM
[4]
  TGI: > 100 µM
[5]
  TGI: > 100 µM
[6]
  TGI: > 100 µM
[7]
  TGI: > 100 µM
[8]
  TGI: > 100 µM

## CCC1=C(C(C)=O)[C@@H]2CCCCC[C@@H](C(=O)OC)C2C1=O (some centres not stated)
[1]
  TGI: > 100 µM
[2]
  TGI: > 100 µM
[3]
  TGI: > 100 µM
[4]
  TGI: > 100 µM
[5]
  TGI: > 100 µM
[6]
  TGI: > 100 µM
[7]
  TGI: > 100 µM
[8]
  TGI: > 100 µM

## C=C(C)OCOCCOC
[10]
  TGI: > 100 µM
[2]
  TGI: > 100 µM
[4]
  TGI: > 100 µM
[5]
  TGI: > 100 µM
[6]
  TGI: > 100 µM
[7]
  TGI: > 100 µM
[8]
  TGI: > 100 µM
[9]
  TGI: > 100 µM

## CN(C)/N=C(/c1nc2ccc(Cl)cc2[nH]c1=O)C(O)c1ccc(C(O)/C(=N\N(C)C)c2nc3ccc(Cl)cc3[nH]c2=O)cc1 (configuration not stated)
[1]
  TGI: > 100 µM
[2]
  TGI: > 100 µM
[3]
  TGI: > 100 µM
[4]
  TGI: > 100 µM
[5]
  TGI: > 100 µM
[6]
  TGI: > 100 µM
[7]
  TGI: > 100 µM
[8]
  TGI: > 100 µM

## O=S(=O)(O)c1ccc(N=Nc2ccc(N=Nc3ccc(/C=C/c4ccc(N=[N+]([O-])c5ccc(/C=C/c6ccc(N=Nc7ccc(N=Nc8ccc(S(=O)(=O)O)cc8)cc7)cc6S(=O)(=O)O)c(S(=O)(=O)O)c5)cc4S(=O)(=O)O)c(S(=O)(=O)O)c3)cc2)cc1
[1]
  TGI: > 100 µM
[2]
  TGI: > 100 µM
[3]
  TGI: > 100 µM
[4]
  TGI: > 100 µM
[5]
  TGI: > 100 µM
[7]
  TGI: > 100 µM

## COc1cc2cc(C(=O)N3C[C@H](CCl)c4c3cc(N)c3ccccc43)[nH]c2c(OC)c1OC
[10]
  GI50: < 0.001 µM
  TGI: 9.03 µM
[2]
  GI50: 0.005 µM
  TGI: 0.615 µM
[4]
  GI50: 0.0171 µM
  TGI: 0.164 µM
[5]
  GI50: 0.0398 µM
  TGI: 0.819 µM
[6]
  GI50: 0.005 µM
  TGI: 0.0137 µM

## N#C/C(C(=O)Nc1ccc(Cl)cc1)=C(/N)N1CCCC1
[10]
  TGI: > 100 µM
[4]
  TGI: > 100 µM
[5]
  TGI: > 100 µM
[6]
  TGI: > 100 µM
[7]
  TGI: > 100 µM
[8]
  TGI: > 100 µM
[9]
  TGI: > 100 µM

## c1cncc(CC2(c3cc4ccccc4[nH]3)OCCO2)c1
[10]
  TGI: > 100 µM
[2]
  TGI: > 100 µM
[3]
  TGI: > 100 µM
[4]
  TGI: > 100 µM
[5]
  TGI: > 100 µM
[7]
  TGI: > 100 µM
[8]
  TGI: > 100 µM
[9]
  TGI: > 100 µM

## COc1ccccc1CN=C1Nc2ccncc2S(=O)(=O)N1c1ccccc1
[1]
  TGI: > 100 µM
[2]
  TGI: > 100 µM
[3]
  TGI: > 100 µM
[4]
  TGI: > 100 µM
[5]
  TGI: > 100 µM
[6]
  TGI: > 100 µM
[7]
  TGI: > 100 µM
[8]
  TGI: > 100 µM
[9]
  TGI: > 100 µM

## CCOC(=O)c1s/c(=N\Nc2nc3ccccc3cc2C2OCCO2)n(Cc2ccccc2)c1C
[1]
  TGI: > 100 µM
[2]
  TGI: > 100 µM
[3]
  TGI: > 100 µM
[4]
  TGI: > 100 µM
[5]
  TGI: > 100 µM
[6]
  TGI: > 100 µM
[7]
  TGI: > 100 µM
[8]
  TGI: > 100 µM

## Cc1ccc(C(=O)N/N=C(\N=Nc2ccccc2)c2ccc(N(C)C)cc2)cc1
[10]
  TGI: > 100 µM
[2]
  TGI: > 100 µM
[3]
  TGI: > 100 µM
[4]
  TGI: > 100 µM
[5]
  TGI: > 100 µM
[6]
  TGI: > 100 µM
[7]
  TGI: > 100 µM
[8]
  TGI: > 100 µM
[9]
  TGI: > 100 µM

## COC(=O)C1CCc2sc3ncnc(Nc4cn[nH]c4C(=O)Nc4ccc(CN5CCN(C)CC5)cc4)c3c21 (configuration not stated)
[1]
  GI50: 0.244 µM
  TGI: 0.891 µM
[2]
  GI50: 0.619 µM
  TGI: 2.91 µM
[3]
  GI50: 0.906 µM
  TGI: > 100 µM
[4]
  GI50: 1.68 µM
  TGI: 3.87 µM
[5]
  GI50: 0.132 µM
  TGI: > 100 µM
[6]
  GI50: 0.708 µM
  TGI: 2.14 µM
[7]
  GI50: 0.506 µM
  TGI: 2.67 µM

## O=C1N=C2SC(=S)NC(=S)N2NC12c1ccccc1-c1ccccc12
[10]
  TGI: > 10 µM
[2]
  TGI: > 10 µM
[3]
  TGI: > 10 µM
[4]
  TGI: > 10 µM
[5]
  TGI: > 10 µM
[6]
  TGI: > 10 µM
[7]
  TGI: > 10 µM
[8]
  TGI: > 10 µM
